Structures can show the parent of a compound that is named as a salt.
Target: T1, human flk-1 (Homo sapiens, UniProt P35968)
T1 construct: host or cells: Flk-1/NIH cells (NIH fibroblasts)
Test: Biochemical FLK-1 assay (flk-1 autophosphorylation ELISA)
Conditions: read-out: bio FLK1 IC50 (μM) % if inhibition at 100
Experimental: This assay evaluates flk-1 autophosphorylation activity in vitro using ELISA.
Materials And Reagents • 1. 15 cm tissue culture dishes • 2. Flk-1/NIH cells: NIH fibroblast line over-expressing human flk-1clone 3 (SUGEN, Inc., obtained from MPI, Martinsried, Germany). • 3. Growth medium: DMEM plus heat inactivated 10% FBS and 2 mM Glutamine (Gibco-BRL). • 4. Starvation medium: DMEM plus 0.5% heat-inactivated FBS, 2 mM Glutamine (Gibco-BRL). • 5. […] L4 or E38 monoclonal antibody specific for flk-1, Purified by Protein-A agarose affinity chromatography (SUGEN, Inc.). • 7. PBS (Dulbecco's Phosphate-Buffered Saline) Gibco Cat. No. 450-1300EB). • 8. HNTG (see BIOCHEMICAL FGFR for preparation). • 9. Pierce BCA protein determination kit. • 10. Blocking buffer • 11. TBST (pH 7.0) • 12. Kinase Buffer • 13. Kinase Stop Solution: 200 mM EDTA. • 14. […] AB kit (Vector Laboratories Cat. No. PK 4000). • 16. DMSO • 17. NUNC 96-well V bottom polypropylene plates (Applied Scientific Cat. No. AS-72092). • 18. Turbo-TMB (Pierce). • 19. Turbo-TMB stop solution: 1 M H2SO4. • 20. ATP (Sigma Cat. No. A-7699). • 21. 20% DMSO in TBS (pH 7.0). Procedure
Cell Growth and Lysate Preparation. • 1. Seed cell into growth medium and grow for 2-3 days to 90-100% confluency at 37° C. and 5% CO2.
2. Remove the medium and wash the cells twice with PBS. Lyse with HNTG lysis buffer. Collect all lysates and vortex mix them for 20-30 seconds. • 3. Remove insoluble material by centrifugation (5-10 min at about 10,000 ×g). • 4. Determine the protein concentration using BCA kit. • 5. Partition lysate into 1 mg aliquots, store at −80° C.
Assay Procedure • 1. Coat Corning 96-well ELISA plates with 2 μg/well purified L4 (or E 38) in 100 μl of PBS. Store overnight at […] • 2. Remove unbound proteins from wells by inverting the plate to remove the liquid. Wash one time with dH2O, pat plate on paper towel to remove excess liquid. • 3. Block plates with 150 μl blocking buffer per well. Incubate for 45-60 minutes with shaking at 4° C. • 4. Remove the blocking buffer and wash the ELISA plate three times with dH2O and one time with TBST. Pat plate on paper towel to remove excess liquid. • 5. Dilute lysate in PBS to give final concentration of 50 μg/100 μl. Add 100 μl of diluted lysate to each well. Incubate with shaking at 4° C. overnight. • 6. Remove unbound proteins from wells by inverting the plate. Wash as in step 4. • 7. Add 80 μl of kinase buffer to wells (90 μl to negative control wells). • 8. Dilute test compounds (normally 10-fold) into wells of a polypropylene plate containing 20% DMSO in TBS. • 9. Add 10 μl of the diluted compounds to the ELISA wells containing immobilized flk-1 and shake. Control wells receive no compounds. • 10. From stock 1 mM ATP, prepare 0.3 mM ATP solution in dH2O (alternatively, kinase buffer may be used). • 11. Add 10 μl of 0.3 mM ATP to all wells except the negative controls. Incubate for 60 min. at room temperature with shaking. • 12. After 1 hr stop the kinase reaction by adding 11 μl 200 mM EDTA. Shake for 1-2 min. • 13. Wash the ELISA plate 4 times with dH2O and twice with TBST. • 14. Add 100 μl of 1:5000 biotinylated 4G10:TBST to all wells. Incubate 45 min with shaking at room temperature. • 15. While the above is incubating, add 50 μl of solutions A & B from the ABC kit to 10 ml of TBST. These solutions must be combined approximately 30 min prior to use. • 16. Wash plates as in step 4. • 17. Add 100 μl of the preformed A & B complex to all wells. Incubate 30 min with shaking at room temperature. • 18. Wash plates as in step 4. • 19. Add 100 μl turbo-TMB. Shake at room temperature for 10-15 min. • 20. When the color in the positive control wells reaches an absorbance of about 0.35-0.4, stop the reaction with 100 μl of turbo-TMB stop solution. • 21. Read plates on Dynatech MR7000 ELISA reader, test filter: 450 nM, reference filter: 410 nM.

T1 sequence (P35968 20-1356): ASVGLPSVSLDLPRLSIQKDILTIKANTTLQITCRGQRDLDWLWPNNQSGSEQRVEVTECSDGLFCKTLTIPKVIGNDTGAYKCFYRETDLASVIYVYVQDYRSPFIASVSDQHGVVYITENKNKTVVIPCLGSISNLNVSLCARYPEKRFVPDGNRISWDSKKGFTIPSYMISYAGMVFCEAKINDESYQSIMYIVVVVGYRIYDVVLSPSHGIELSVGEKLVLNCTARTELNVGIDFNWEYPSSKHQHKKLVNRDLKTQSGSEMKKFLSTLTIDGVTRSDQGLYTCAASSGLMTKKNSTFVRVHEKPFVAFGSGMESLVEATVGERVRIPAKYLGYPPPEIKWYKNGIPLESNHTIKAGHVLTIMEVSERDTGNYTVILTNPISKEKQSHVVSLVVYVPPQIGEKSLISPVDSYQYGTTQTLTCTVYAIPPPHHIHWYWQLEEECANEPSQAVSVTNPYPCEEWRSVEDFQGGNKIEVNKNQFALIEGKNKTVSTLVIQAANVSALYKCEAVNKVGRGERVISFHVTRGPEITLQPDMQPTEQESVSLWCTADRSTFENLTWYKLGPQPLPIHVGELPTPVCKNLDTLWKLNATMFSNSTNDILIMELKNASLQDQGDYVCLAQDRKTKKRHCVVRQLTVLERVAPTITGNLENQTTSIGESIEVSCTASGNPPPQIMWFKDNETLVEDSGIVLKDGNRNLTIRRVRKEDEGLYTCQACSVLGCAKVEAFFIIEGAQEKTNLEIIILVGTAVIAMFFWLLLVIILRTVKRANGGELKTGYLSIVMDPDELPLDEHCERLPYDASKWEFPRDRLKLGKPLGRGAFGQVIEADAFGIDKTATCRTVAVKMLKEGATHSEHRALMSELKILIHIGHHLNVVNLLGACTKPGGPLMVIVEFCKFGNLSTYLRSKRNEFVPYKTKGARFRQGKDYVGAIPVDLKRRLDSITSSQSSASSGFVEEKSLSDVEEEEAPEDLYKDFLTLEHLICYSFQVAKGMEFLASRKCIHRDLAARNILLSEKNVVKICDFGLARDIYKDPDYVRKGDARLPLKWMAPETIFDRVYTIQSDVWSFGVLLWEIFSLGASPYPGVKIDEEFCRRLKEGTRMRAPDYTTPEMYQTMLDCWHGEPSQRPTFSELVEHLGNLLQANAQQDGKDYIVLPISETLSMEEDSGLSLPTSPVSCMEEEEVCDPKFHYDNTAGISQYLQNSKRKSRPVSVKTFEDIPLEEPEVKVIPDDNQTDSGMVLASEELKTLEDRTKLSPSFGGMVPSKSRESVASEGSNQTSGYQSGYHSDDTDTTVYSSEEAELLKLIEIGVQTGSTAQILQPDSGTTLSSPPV

IC50: 4.2 µM
SMILES: Cc1c(/C=C2\C(=O)Nc3ccc(C(=O)O)cc32)[nH]c2ccccc12 [Example 156, 3-(3-Methyl-1H-indol-2-ylmethylene)-2-oxo-2,3-dihydro-1H-indole-5-carboxylic acid (piperidine salt)]

Source: patent US6855730B2, “3-methylidenyl-2-indolinone modulators of protein kinase” (Sugen, Inc., priority 1998, dated 2005)
